In BindingDB's records for patent US20230312571 (Fujian Akeylink Biotechnology, 2023):
pIC50: −log10 of the molar value.

Biological target: Replicase polyprotein 1a (Severe acute respiratory syndrome coronavirus 2, UniProt P0DTC1)
Test: Evaluation of the in Vitro Anti-Novel Coronavirus Mpro Protease Activity
Procedure: The compound was dissolved in DMSO, and diluted in a 3-fold gradient with Echo655 according to the concentration requirements to 10 concentration points, and duplicate tests were set at each concentration, and the diluted solution was added to a 384-well plate. Mpro protein and substrate were diluted with test buffer (100 mM NaCl, 20 mM Tris-HCl, 1 mM EDTA), and Mpro protein was added to the 384-well test plate, incubated with the compound for 30 min at room temperature, and then the substrate was added thereto, and the test concentration of Mpro protein was 25 nM, and the test concentration of substrate was 25 µM. After incubating for 60 minutes in a 30° C. constant temperature incubator, the fluorescence signal value of Ex/Em=340 nm/490 nm was detected by microplate reader. At the same time, the background well containing the substrate and compound but not containing Mpro protein was detected as control.

## N#C[C@H](C[C@@H]1CCNC1=O)NC(=O)[C@@H]1[C@H]2CC[C@H](C2)N1C(=O)[C@@H](NC(=O)C(F)(F)F)C1CCCCC1 [US20230312571, Compound 2]
  pIC50: 6.60
